Results reported in PMC2806265, “Divergence of allosteric effects of rapacuronium on binding and function of muscarinic receptors” (BMC Pharmacology, 2009).

Tests used:
[1] = test system: nontransfected CHO-K1 cells; test: [35S]GTPγS binding to membranes from nontransfected cells; type: biochemical, Chinese hamster
Protocol: Figure 6 Effects of rapacuronium on ACh-induced [^35S]GTPγS binding to membranes. Membranes from CHO cells expressing individual subtypes of muscarinic receptors or nontransfected CHO-K1 cells were preincubated for 60 min with buffer (closed symbols) or with rapacuronium (open symbols). […] Data are expressed as fold increase of basal [^35S]GTPγS binding and are presented as means ± SE from 3 independent experiments performed in quadruplicates. Curves are fits of Eq. 5 to data.

[2] = molecular target: T1, M1 muscarinic receptor (Homo sapiens, UniProt P11229); test: Effect of rapacuronium on low-affinity ACh binding ([3H]NMS + GTPγS + ACh)
T1 construct: host or cells: CHO cells, stably transfected; membrane preparation
T1 sequence (P11229 1-460): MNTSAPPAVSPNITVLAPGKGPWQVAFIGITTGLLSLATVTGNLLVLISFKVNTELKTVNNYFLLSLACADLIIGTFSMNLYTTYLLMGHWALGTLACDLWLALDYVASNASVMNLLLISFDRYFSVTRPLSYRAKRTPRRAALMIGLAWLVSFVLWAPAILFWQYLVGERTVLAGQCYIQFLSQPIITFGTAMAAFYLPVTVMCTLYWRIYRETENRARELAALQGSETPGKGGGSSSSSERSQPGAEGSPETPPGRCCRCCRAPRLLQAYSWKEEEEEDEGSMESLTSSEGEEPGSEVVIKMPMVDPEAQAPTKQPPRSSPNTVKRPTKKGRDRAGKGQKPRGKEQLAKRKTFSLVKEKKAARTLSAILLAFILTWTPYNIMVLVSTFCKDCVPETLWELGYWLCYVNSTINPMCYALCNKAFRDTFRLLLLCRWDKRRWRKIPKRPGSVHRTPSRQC
Source text: (§1) Data are expressed as percent of specific binding in the absence of rapacuronium. […] Data are means ± SE from 3 independent experiments performed in quadruplicates. Curves are fits of Eq. 3 (circles) and Eq. 4 (squares and triangles) to data prior to normalization.

[3] = molecular target: T2, M3 muscarinic receptor (Homo sapiens, UniProt P20309); test: as above
T2 construct: host or cells: CHO cells, stably transfected; membranes
T2 sequence (P20309 whole entry): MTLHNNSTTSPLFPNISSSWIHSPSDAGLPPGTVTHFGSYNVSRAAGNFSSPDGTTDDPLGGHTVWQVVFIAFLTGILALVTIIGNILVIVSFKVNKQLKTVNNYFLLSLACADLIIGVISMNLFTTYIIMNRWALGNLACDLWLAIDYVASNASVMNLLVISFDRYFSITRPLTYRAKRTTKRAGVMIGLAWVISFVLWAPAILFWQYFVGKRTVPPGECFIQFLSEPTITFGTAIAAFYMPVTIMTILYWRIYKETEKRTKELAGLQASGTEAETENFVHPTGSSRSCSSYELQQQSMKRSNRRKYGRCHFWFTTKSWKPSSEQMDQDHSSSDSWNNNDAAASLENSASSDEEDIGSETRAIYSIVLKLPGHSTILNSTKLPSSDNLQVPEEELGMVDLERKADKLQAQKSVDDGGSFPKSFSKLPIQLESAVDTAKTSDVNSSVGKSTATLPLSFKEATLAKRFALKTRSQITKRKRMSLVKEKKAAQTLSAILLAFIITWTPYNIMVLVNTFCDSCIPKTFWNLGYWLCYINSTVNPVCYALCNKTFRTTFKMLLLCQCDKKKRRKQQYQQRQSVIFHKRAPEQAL
Source text: as §1

[4] = molecular target: T2, M3 muscarinic receptor; type: biochemical; conditions: CHO-M3 membranes
Source text: Time course of association(6) [drawing 6]
y, radioligand binding at time x; kobs, observed rate of association; equilibrium binding Beq = Bottom + Span.

[5] = molecular target: T2, M3 muscarinic receptor; test: biochemical; conditions: for EMAX of ACh on [^35S]GTPγS binding: fold of basal
Protocol: For determination of [^35S]GTPγS binding to G-proteins in membranes a final concentration of 200 pM (M1, M3 and M5 receptors) or 500 pM (M2 and M4 receptors) of [^35S]GTPγS was used. Incubation medium was supplemented with 5 μM (M1, M3 and M5 receptors) or 50 μM (M2 and M4 receptors) GDP. […] Incubation with [^35S]GTPγS was carried out for 20 min and free ligand was removed by filtration as described above. Filtration and washing with ice-cold water lasted for 9 s (wash-aspirate button time).

[6] = molecular target: T1, M1 muscarinic receptor; test: [3H]ACh saturation binding
Source text: (§2) BMAX, maximum binding capacity; KD, equilibrium dissociation constant.

[7] = molecular target: T2, M3 muscarinic receptor; test: [3H]ACh saturation binding
Source text: as §2

[8] = molecular target: T3, M5 muscarinic receptor (Homo sapiens, UniProt P08912); test: [3H]NMS saturation binding
T3 sequence (P08912 1-532): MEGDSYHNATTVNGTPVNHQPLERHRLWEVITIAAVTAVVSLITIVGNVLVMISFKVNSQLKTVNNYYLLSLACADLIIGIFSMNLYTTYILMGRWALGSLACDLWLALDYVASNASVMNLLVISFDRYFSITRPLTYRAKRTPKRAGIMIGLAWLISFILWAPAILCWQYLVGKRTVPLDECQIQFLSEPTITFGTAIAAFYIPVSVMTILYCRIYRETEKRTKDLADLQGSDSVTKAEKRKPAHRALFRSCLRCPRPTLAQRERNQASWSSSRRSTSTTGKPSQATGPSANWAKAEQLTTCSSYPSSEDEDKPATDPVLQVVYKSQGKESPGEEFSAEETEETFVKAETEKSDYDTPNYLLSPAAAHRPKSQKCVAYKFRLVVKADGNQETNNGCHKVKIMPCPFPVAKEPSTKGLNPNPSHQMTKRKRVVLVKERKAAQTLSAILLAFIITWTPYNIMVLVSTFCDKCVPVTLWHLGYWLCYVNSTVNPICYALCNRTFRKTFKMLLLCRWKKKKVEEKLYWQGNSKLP

[9] = molecular target: T3, M5 muscarinic receptor; test: Effect of rapacuronium on low-affinity ACh binding ([3H]NMS + GTPγS + ACh); parameters: host or cells: CHO cells, stably transfected; membranes
Source text: (§3) […]. Data are expressed as percent of specific binding in the absence of rapacuronium. […]. […] Data are means ± SE from 3 independent experiments performed in quadruplicates. Curves are fits of Eq. 3 (circles) and Eq. 4 (squares and triangles) to data prior to normalization.
(§4) […]. […] […].

[10] = molecular target: T4, M4 muscarinic receptor (Homo sapiens, UniProt P08173); test: as above; parameters: host or cells: CHO cells, stably transfected; membranes
T4 sequence (P08173 1-479): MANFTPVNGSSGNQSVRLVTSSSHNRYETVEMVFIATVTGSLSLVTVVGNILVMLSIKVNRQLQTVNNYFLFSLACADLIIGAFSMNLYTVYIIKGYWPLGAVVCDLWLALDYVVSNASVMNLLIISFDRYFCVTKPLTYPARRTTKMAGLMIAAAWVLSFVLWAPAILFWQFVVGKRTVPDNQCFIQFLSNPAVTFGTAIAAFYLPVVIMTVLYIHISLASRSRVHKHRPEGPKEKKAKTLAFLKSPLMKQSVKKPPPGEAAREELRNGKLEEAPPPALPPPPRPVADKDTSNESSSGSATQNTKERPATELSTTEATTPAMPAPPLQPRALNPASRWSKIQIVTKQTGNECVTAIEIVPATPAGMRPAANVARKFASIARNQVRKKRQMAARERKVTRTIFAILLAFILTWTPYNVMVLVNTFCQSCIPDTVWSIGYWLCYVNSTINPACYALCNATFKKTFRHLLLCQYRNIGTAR
Source text: as §3, §4

## C=CC[N+]1([C@H]2C[C@H]3[C@@H]4CC[C@H]5C[C@H](OC(C)=O)[C@@H](N6CCCCC6)C[C@]5(C)[C@H]4CC[C@]3(C)[C@H]2OC(=O)CC)CCCCC1 [rapacuronium]
[1]
  effect on [^35S]GTPγS binding: did not decrease
[2]
  Kd: 4.68 µM
[2]; M1, negative value = negative cooperativity
  pβ, cooperativity with ACh low affinity binding: -1.32 ± 0.06
[3]; M3
  decrease in ACh low-affinity binding (cooperativity): 16 fold
[3]; M3, negative value = negative cooperativity
  pβ, cooperativity with ACh low affinity binding: -1.20 ± 0.07
[3]; read-out: pKA of rapacuronium (converted)
  Kd: 17 µM
[4]; 1 μM rapacuronium alone
  effect on rate of [^35S]GTPγS binding: slightly decreased
[4]; 10 μM ACh + 1 μM rapacuronium
  increase in [^35S]GTPγS binding at 5 min incubation: ~5 fold
  observed rate (kobs) of [^35S]GTPγS binding: 0.166 ± 0.013 min⁻¹
[4]; 10 μM ACh with 1 μM rapacuronium
  estimated [^35S]GTPγS equilibrium binding (Beq): 9,980 ± 120 cpm per well
[5]; 0.1 μM rapacuronium
  decrease in ACh EC50: 2 fold
[5]; 1 μM rapacuronium
  decrease in ACh EC50: 2 fold
[5]; 10 μM rapacuronium
  increase in ACh EC50: about 3 fold
[5]; + 0.1 μM rapacuronium
  EMAX of ACh on [^35S]GTPγS binding: 2.78 ± 0.11
[5]; + 1 μM rapacuronium
  EMAX of ACh on [^35S]GTPγS binding: 2.52 ± 0.08
[5]; + 10 μM rapacuronium
  EMAX of ACh on [^35S]GTPγS binding: 2.12 ± 0.09
[5]; rapacuronium alone, normalized to absence of rapacuronium
  EMAX of rapacuronium on [^35S]GTPγS binding: 0.75 ± 0.07
[5]; rapacuronium alone, read-out: EC50 of lowering [^35S]GTPγS binding
  EC50: 76 µM
[5]; read-out: increase in ACh EMAX, 0.1 μM rapacuronium
  Emax at 0.1 µM: ~60%
[5]; read-out: increase in ACh EMAX, 1 μM rapacuronium
  Emax at 1 µM: ~35%
[6]; + 10 μM rapacuronium
  BMAX of [^3H]ACh: 0.33 ± 0.05 fmol/μg of protein
[6]; + 100 μM rapacuronium
  BMAX of [^3H]ACh: 0.32 ± 0.05 fmol/μg of protein
[7]; + 10 μM rapacuronium
  BMAX of [^3H]ACh: 0.40 ± 0.04 fmol/μg of protein
[7]; + 100 μM rapacuronium
  BMAX of [^3H]ACh: 0.37 ± 0.05 fmol/μg of protein
[8]; + 10 μM rapacuronium
  BMAX of [^3H]NMS: 1.53 ± 0.15 fmol/μg of protein
[8]; + 100 μM rapacuronium
  BMAX of [^3H]NMS: 1.33 ± 0.13 fmol/μg of protein
[9]
  Kd: 11.2 µM
[9]; M5, negative value = negative cooperativity
  pβ, cooperativity with ACh low affinity binding: -1.28 ± 0.07
[10]
  Kd: 3.24 µM
[10]; M4
  decrease in ACh low-affinity binding (cooperativity): 36 times
[10]; M4, negative value = negative cooperativity
  pβ, cooperativity with ACh low affinity binding: -1.56 ± 0.07
